Data from ChEMBL document CHEMBL1201862, “PubChem BioAssay data set” (2004).
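Briefly, cells in 96-well plates were exposed to five compound concentrations for 48 h, and endpoints were estimated by linear interpolation. Here, GI50 denotes the concentration required for 50% inhibition of growth.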 Activity calls are given as the source filed them. Rule as the data show it: active = GI50 up to about 1.1 µM and inactive = higher.

Assays:
Assay in all cases: inhibition of tumour cell growth, NCI panel, 48 h
K562 = tested on: K562
M14 = tested on: M14
SNB-75 = tested on: SNB-75
OVCAR-8 = tested on: OVCAR-8
SK-OV-3 = tested on: SK-OV-3
HCT-15 = tested on: HCT-15
RPMI-8226 = tested on: RPMI-8226
SK-MEL-2 = tested on: SK-MEL-2
MCF7 = tested on: MCF7
KM12 = tested on: KM12
EKVX = tested on: EKVX
SW-620 = tested on: SW-620
NCI-H522 = tested on: NCI-H522
ACHN = tested on: ACHN
IGROV-1 = tested on: IGROV-1
NCI-H460 = tested on: NCI-H460
BT-549 = tested on: BT-549
A498 = tested on: A498
HCC 2998 = tested on: HCC 2998
HL-60 = tested on: HL-60

Structure (SMILES)	GI50 (K562)	GI50 (M14)	GI50 (SNB-75)	GI50 (OVCAR-8)	GI50 (SK-OV-3)	GI50 (HCT-15)	GI50 (RPMI-8226)	GI50 (SK-MEL-2)	GI50 (MCF7)	GI50 (KM12)	GI50 (EKVX)	GI50 (SW-620)	GI50 (NCI-H522)	GI50 (ACHN)	GI50 (IGROV-1)	GI50 (NCI-H460)	GI50 (BT-549)	GI50 (A498)	GI50 (HCC 2998)	GI50 (HL-60)
CCOP(=O)(CN1CCNCCN(CP(=O)(OCC)OCC)CC1)OCC	> 100 µM (inactive)	> 100 µM (inactive)	> 100 µM (inactive)	> 100 µM (inactive)	> 100 µM (inactive)	> 100 µM	> 100 µM (inactive)	> 100 µM (inactive)	> 100 µM (inactive)	> 100 µM (inactive)	> 100 µM (inactive)	> 100 µM (inactive)	> 100 µM (inactive)	> 100 µM (inactive)	> 100 µM (inactive)	> 100 µM (inactive)	> 100 µM (inactive)	> 100 µM (inactive)		
CCOC(=O)c1nnsc1NC(=O)Nc1ccc(Cc2ccc(NC(=O)Nc3snnc3C(=O)OCC)cc2)cc1	> 100 µM (inactive)	> 100 µM (inactive)	88.5 µM (inactive)	27.5 µM (inactive)	21.8 µM (inactive)	> 100 µM	> 100 µM (inactive)	> 100 µM (inactive)	71.8 µM (inactive)	55.1 µM (inactive)	85.3 µM (inactive)	> 100 µM (inactive)		> 100 µM (inactive)	28.2 µM (inactive)	25.6 µM (inactive)	> 100 µM (inactive)		> 100 µM (inactive)	
O=c1c2cc3c(=O)n4c(cc(-c5ccccc5)c5cc(Cl)ccc54)nc3cc2nc2cc(-c3ccccc3)c3cc(Cl)ccc3n12	> 100 µM (inactive)	> 100 µM (inactive)	36.8 µM (inactive)	> 100 µM (inactive)	> 100 µM (inactive)	> 100 µM	> 100 µM (inactive)	> 100 µM (inactive)	> 100 µM (inactive)	> 100 µM (inactive)	75.3 µM (inactive)	> 100 µM (inactive)	> 100 µM (inactive)	76.6 µM (inactive)	> 100 µM (inactive)	> 100 µM (inactive)	> 100 µM (inactive)	> 100 µM (inactive)	> 100 µM (inactive)	
O=C(CC(O)(C(F)(F)F)C(F)(F)Cl)CC(O)(C(F)(F)F)C(F)(F)Cl (stereo not drawn)	2.76 µM (inactive)	3.65 µM (inactive)	2.82 µM (inactive)	2.88 µM (inactive)	1.4 µM (inactive)	1.79 µM	7.1 µM (inactive)	1.59 µM (inactive)	2.79 µM (inactive)	3.09 µM (inactive)	2.37 µM (inactive)	3.86 µM (inactive)	1.61 µM (inactive)	1.77 µM (inactive)	2.47 µM (inactive)	1.64 µM (inactive)		2.29 µM (inactive)	3.04 µM (inactive)	2.99 µM (inactive)
CCOC(=O)c1c(C)n(C)c2c1cc(O)c1[nH]c3c(c12)CCCC3	17.3 µM (inactive)	13.2 µM (inactive)		21 µM (inactive)	29.4 µM (inactive)	27.2 µM	3.93 µM (inactive)	18.5 µM (inactive)	2.71 µM (inactive)	15 µM (inactive)	17.6 µM (inactive)	20.8 µM (inactive)	14 µM (inactive)	27.4 µM (inactive)	12.7 µM (inactive)	20.5 µM (inactive)	45.7 µM (inactive)			21.6 µM (inactive)
CC(=O)C(=NNc1ccc(-n2c(C)nc3ccc(Br)cc3c2=O)cc1)C(C)=O	> 100 µM (inactive)	> 100 µM (inactive)	20.7 µM (inactive)	53.7 µM (inactive)	> 100 µM (inactive)	> 100 µM	50.4 µM (inactive)	> 100 µM (inactive)	> 100 µM (inactive)	> 100 µM (inactive)	> 100 µM (inactive)	> 100 µM (inactive)		98.4 µM (inactive)	> 100 µM (inactive)	> 100 µM (inactive)	> 100 µM (inactive)	> 100 µM (inactive)		> 100 µM (inactive)
O=[N+]([O-])c1ccc2c3c1[C@@H]1O[C@@H]1c1cccc(c1-3)[C@@H]1O[C@H]21	4.2 µM (inactive)	3.24 µM (inactive)	5.68 µM (inactive)	2.04 µM (inactive)	17.4 µM (inactive)	2.57 µM	1.88 µM (inactive)	6.14 µM (inactive)	3.55 µM (inactive)	2.72 µM (inactive)	6.35 µM (inactive)	2.72 µM (inactive)	1.67 µM (inactive)	1.94 µM (inactive)	1.24 µM (inactive)		6.11 µM (inactive)	3.23 µM (inactive)		3.1 µM (inactive)
CC1(C)OCC2(CO1)CSCCCSCC1(COC(C)(C)OC1)CSCCCSC2	> 100 µM (inactive)	> 100 µM (inactive)	90.6 µM (inactive)	> 100 µM (inactive)	> 100 µM (inactive)	> 100 µM	> 100 µM (inactive)		> 10 µM (inactive)	> 100 µM (inactive)	> 100 µM (inactive)	> 100 µM (inactive)	> 100 µM (inactive)		> 100 µM (inactive)	> 100 µM (inactive)	> 100 µM (inactive)		> 100 µM (inactive)	> 100 µM (inactive)
